The results in this text go back to patent US20210024499A1, “OXIDIZED BIS(3-INDOLYL)METHANES AND USES THEREOF” (Sanford Burnam Prebys Medical Discovery Institute, priority 2018, published 2021).

Assay [1] has as its system breast cancer cell lines (MDA-MB-231, BT549, HCC 1937, ZR-75-1, T47D, MCF-7). The assay is described as follows: Cell viability (MTT) in various breast cancer cell lines. It counts as cell-based. The settings on record: 24 hours, FIG. 1E; regardless of hormone dependency. As to the method:
Cell viability was analyzed by using a colorimetric 3-(4,5-dimethylthiazol-[…]2-yl)-2,5-diphenyletetrazolium Bromide (MTT) assay that determines mitochondrial dehydrogenase activities in the living cells with a colorimetric method. Cells treated with test compounds were incubated with MTT and their effect on the viability of the cells was assayed by the ability of treated cells to reduce the yellow tetrazolium dye MTT to its insoluble formazan, which has a purple color.
Compound 1 was effective in various breast cancer cell lines analyzed regardless of its hormone dependency, including MDA-MB-231 cells, BT549 cells, HCC 1937 cells, ZR-75-1 cells, T47D cells, and MCF-7 cells (FIG. 1E).

The test system of another assay is HeLa cells. As to the kind of experiment: PARP cleavage assay (Western blotting), HeLa. It counts as cell-based. Conditions: 6 hours. From the text: (§1) Compound 1a had no effect under the same conditions (FIG. 1A). […] Compound 1a, 28a, 47a, 48a, 73a, 39a, 70a, 103a, 89a and 88a had no effect under the same conditions (FIG. 3B-C).
(In general: In western blotting, separated proteins are transferred to a membrane and probed.)

The subject of assay [2] is SW480 cells. As to the kind of experiment: PARP cleavage assay (Western blotting), SW480. It counts as cell-based. Conditions: 6 hours.
From the text: as §1

Assay [3] deals with SW480 cells. As to the kind of experiment: DAPI staining for apoptosis, SW480. It counts as cell-based. The settings on record: 0.5 μM, 6 hours, counted in 200 cells. How it is done:
In SW480 cells, about 60% apoptotic cells were detected when cells were treated with Compound 1 compared to less than 5% when cells were not treated with Compound 1. Apoptotic cells were counted in 200 cells.

Assay [4] has as its system MDA-MB-231 breast cancer cells. The assay is described as follows: Mitochondrial membrane potential (JC-1), MDA-MB-231. Conditions: MDA-MB-231 cells, 1 μM, 6 h. It counts as cell-based. As to the method:
(§2) Loss of mitochondrial membrane potential (Avm) represents one of the hallmarks of apoptosis. A JC-1 probe was employed to measure mitochondrial depolarization in cancer cells. MDA-MB-231 breast cancer cells were treated with different concentration of test compounds for 6 hours. JC-1 staining solution (5 μg/ml) was added at 37° C. for 20 min. After washing with PBS twice, mitochondrial membrane potentials were monitored by determining the relative amounts of dual emission from a multiple fluorescence reader. The fluorescence in cells was quantitatively analyzed by flow cytometry. Mitochondrial depolarization is depicted by an increase in the green/red fluorescence intensity ratio. ROS were monitored with the oxiadtion-senstive fluorescent probe 2′7′-dichlorodihydroflurescenin diacetate (DCF-DA).
In healthy cells with high Δψwm, JC-1 forms complexes with intense red fluorescence. However, in cells with low Δψm, JC-1 remains in the monomeric form with green fluorescence. Mitochondrial depolarization is depicted by an increase in the green/red fluorescence intensity ratio.

Another assay concerns MDA-MB-231 cells. The assay is described as follows: Mitochondrial ROS, MDA-MB-231. The assay is classed as cell-based. The settings on record: dose dependent, 6 hours. As to the method: as §2
In another assay the target is T1, Nur77 (Homo sapiens, UniProt P22736).
T1 construct: expressed in transfected cells
T1 sequence (P22736 whole entry): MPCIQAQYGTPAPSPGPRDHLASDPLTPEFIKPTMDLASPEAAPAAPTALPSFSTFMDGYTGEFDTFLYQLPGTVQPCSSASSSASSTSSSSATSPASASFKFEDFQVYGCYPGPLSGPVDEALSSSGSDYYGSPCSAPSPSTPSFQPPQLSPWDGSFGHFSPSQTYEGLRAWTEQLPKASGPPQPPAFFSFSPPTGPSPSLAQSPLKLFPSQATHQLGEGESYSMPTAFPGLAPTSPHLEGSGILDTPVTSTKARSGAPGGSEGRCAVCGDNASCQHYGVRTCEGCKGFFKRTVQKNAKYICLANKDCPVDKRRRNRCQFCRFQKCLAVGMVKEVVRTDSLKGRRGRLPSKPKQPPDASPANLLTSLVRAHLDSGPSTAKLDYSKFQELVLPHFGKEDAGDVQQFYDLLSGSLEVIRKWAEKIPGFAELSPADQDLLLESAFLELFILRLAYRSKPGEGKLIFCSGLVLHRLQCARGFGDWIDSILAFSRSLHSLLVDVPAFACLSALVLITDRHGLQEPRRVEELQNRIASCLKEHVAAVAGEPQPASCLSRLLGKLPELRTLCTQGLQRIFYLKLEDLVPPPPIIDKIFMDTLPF
The assay is described as follows: Nur77 expression and mitochondrial targeting with BI2030, HeLa. It counts as cell-based. The settings on record: HeLa cells. The source says: To further characterize the effect of Compound 1 on promoting Nur77 mitochondrial targeting, we investigated the effect of Compound 1 in combination with BI2030 on Nur77 mitochondrial targeting and apoptosis induction. […] When Compound 1 and B12030 were used together, most of the BI2030-induced Nur77 protein was found in the heavy membrane fraction, and formed punctate structure in the cytoplasm, as visualized by confocal microscopy.

The next assay deals with Bcl-2−/−MEF cells. The assay is described as follows: DAPI staining for apoptosis, Bcl-2-/- MEFs. The assay is classed as cell-based, mouse. Conditions: 0.5 μM. The source says:
The apoptotic effect of Compound 1 was also examined in mouse embryonic fibroblast (MEF) and MEF lacking Bcl-2 (Bcl-2^−/−MEF). […] Apoptotic cells were counted in 200 cells.

The test system of a further assay is Nur77−/−HeLa cells. The assay is described as follows: Annexin V/PI staining, Nur77 knockout HeLa. The assay is classed as cell-based. How it is done:
Knocking out Nur77 and Bcl-2 from HeLa cells employed the CRISPR/Cas9 system. gRNA targeting sequence of Nur77 (5′-[…]-3′) and Bcl-2 (5′-[…]-3′) was cloned into gRNA cloning vector Px330 (Addgene, 71707) and confirmed by sequencing. To screen for cells lacking Nur77 or Bcl-2, HeLa cells were transfected with control vector and gRNA expression vectors, followed by G418 selection (0.5mg/m1). Single colonies were subjected to Western blotting using anti-Nur77 and anti-Bcl-2 antibody to select knockout cells.
The apoptotic effect of Compound lwas also evaluated in Nur77 genome knockout HeLa cells generated by CRISPR/Cas9 technology (Example A-5).

In assay [5] the test system is HEK293T cells transfected with Nur77-LBD. As to the kind of experiment: Apoptosis in HEK293T cells transfected with Nur77-LBD (confocal microscopy). The assay is classed as cell-based. The source says: The ligand-binding domain (LBD) of Nur77, Nur77-LBD, was transfected into HEK293T cells. Transfection of Nur77-LBD enhanced the apoptotic effect of Compound 1, with 36% of the transfected HEK293T cells undergoing apoptosis, while 4.5% of the non-transfected cells were apoptotic, as measured by confocal microscopy.

In the next assay the test system is pBind-RXRa-LBD and Nur77. The assay is described as follows: Mammalian one hybrid assay, Gal4-RXRa-LBD with Nur77. The assay is classed as cell-based. Conditions: cotransfection of pBind-RXRa-LBD and Nur77, Dual-Luciferase (FIG. 10). How it is done: HEK293T cells were co-transfected with pG5 Luciferase reporter together with the plasmid encoding RXRa-LBD fused with the Gal4 DNA-binding domain and other expression plasmids. After transfection, cells were treated with DMSO or a test compound, and assayed by using the Dual-Luciferase Reporter Assay System (Promega). Transfection efficiency was normalized to Renilla luciferase activity.
To exclude the possibility that Compound 1 acted on RXRa, Glu453 and Glu456 in the RXRa activation function 2 (AF2) region were substituted with Ala and the resulting mutant, RXRa-LBD/E453,6A, was used.

The test system of assay [6] is Nur77 interaction with Bcl-2. The assay is described as follows: Cell-based co-immunoprecipitation of Nur77 and Bcl-2. As to the method: Western blotting and co-immunopreciptations (co-IP) were performed. Briefly, cells transfected with or without expression vectors for Nur77 and Bcl-2 were treated with test compounds for 2 hours. The effect of compounds on the interaction of endogenous or transfected Nur77 and Bcl-2 was analyzed by co-immunoprecipitation using appropriate antibodies. Proteins immunoprecipitated from cells by an appropriate anti-Nur77 or anti-Bcl-2 antibody were analyzed by Western blotting.

`FC(F)(F)c1ccc([C+](c2c[nH]c3ccccc23)c2c[nH]c3ccccc23)cc1` [Compound 1, Bis(1H-indol-3-yl)(4-(trifluoromethyl)phenyl)methylium methanesulfonate]: the “cell viability (MTT)” value in assay [1] is recorded as “effective”. Moreover, the “concentration inducing PARP cleavage (dose dependent study)” value in the assay on HeLa cells and with SW480 cells [2] was “submicromolar concentrations” in each case. The “apoptotic cells (DAPI staining)” value in the assay on SW480 cells [3] was “about 60%”. In assay [4], the “JC-1 green to red ratio (control 100%)” value is given as 345%. For the same molecule, the “intracellular mitochondrial reactive oxygen species (mito-ROS)” value in the assay with MDA-MB-231 cells is reported as “marked increase”. For the same molecule, the “induction of Nur77 expression” value on Nur77 (Compound 1 0.5 μM, BI2030 1 μM, 2 hours (FIG. 5)) is given as “incapable of inducing Nur77 expression”. Besides, the “Nur77 mitochondrial accumulation / targeting” value on Nur77 (heavy membrane fraction, Compound 1 tested together with BI2030) is on record as “able to induce mitochondrial targeting of BI2030-induced Nur77 protein”. Besides, the “cells with chromatin condensation and nuclear fragmentation (DAPI)” value in the assay with Bcl-2−/−MEF cells is on record as 14%. Also, the “apoptotic effect (Annexin V/PI staining)” value with Nur77−/−HeLa cells was found to be 3.25%. The molecule further yielded a cells undergoing apoptosis in assay [5] of 36%. In addition, in the assay on pBind-RXRa-LBD and Nur77, the reporter transcriptional activity entry is recorded as “dose dependently induced the reporter activity”. Moreover, in assay [6] (Nur77 transfected in HeLa cells), the “Nur77 interaction with Bcl-2 (Co-IP)” value was “interacted with Bcl-2”. Also, the “endogenous Nur77 immunoprecipitated with endogenous Bcl-2” value in assay [6] (anti-Bcl-2 antibody) is recorded as “specifically immunoprecipitated together with endogenous Bcl-2”. In addition, the “Nur77 or Nur77-LBD interaction with Bcl-2 (Co-IP)” value in assay [6] (transfected in HEK293T cells) is “interacted with Bcl-2”.
